Results: patent publication US10758609B2, “Cross-reactive T-cell epitopes of HIV, SIV, and FIV for vaccines in humans and cats” (priority 2015, dated 2020)
Residues, ends and D or L forms follow the SMILES beside them.

Tests used:
[1] = tested on: CD4^+ T cells from HIV^+ subjects; details: HIV-1 peptides; HIV+ human subjects
Method: The overlapping peptide pools of FIV and HIV-1 structural and enzyme proteins were used to stimulate the […] (PBMC) and the T cells from HIV^+ subjects as previously described for epitope mapping of HIV-1 and FIV p24 and reverse transcriptase (RT) (Sanou et al., 2013; Roff et al., 2015). The individual peptides in those peptide pools with positive responses to either interferon-γ (IFNγ) production and/or T-cell proliferation were determined with IFNγ ELISpot analysis and CFSE-based CD3^+CD4^+ and CD3^+CD8^+ T-cell proliferation analyses followed by the FACS-based intracellular staining (ICS) for cytolysin (perforin) and cytotoxin (granzyme A [GrzA] and GrzB) (Sanou et al., 2013; Roff et al., 2015). Besides viral p24 and RT proteins, the identical approach was used to identify anti-HIV/FIV T-cell epitopes on viral matrix (MA), nucleocapsid (NC), protease (PR), RNAase, integrase (IN), surface envelope (SU Env), and transmembrane envelope (TM Env) (FIG. 12).
Since our goal is to develop HIV vaccine for human use, the HIV peptides (Table 10) counterpart of the cross-reactive FIV peptides shown in Table 9 were tested with PBMC and T cells from HIV^+ subjects. The immune functions analyzed were human IFNγ production by ELISpot, cytolysin/cytotoxin production by ICS, and CFSE-based proliferation of CD3^+CD4^+ and CD3^+CD8^+ T cells from HIV^+ subjects (Table 10, the first set of results). In addition, the Los Alamos National Laboratories (LANL) database was used to identify the HLA allele(s) of the HIV epitope sequence with CTL activity that can exist within the sequence of the conserved counterpart HIV peptide (Table 9, LANL CTL). The bold HLA class-I supertypes and the bold 2-digit alleles are those on the “Optimal CD8^+ CTL Epitopes” list and those without bold are alleles for potential CTL epitope. […] The HLA class II such as HLA-DRB1 has yet to be fully classified into supertypes, and therefore the 4-digit resolution nomenclatures for the HLA-DRB1 alleles are shown.
The counterpart HIV-1 peptides of the FIV peptides were also tested for immunogenicity using PBMC and T cells from HIV^+ human subjects. […] The HRT7-1 and HRT7-2 were also tested with cells from HIV^+ subjects on ART. The threshold for positive IFNγ ELISpot response is ≥75 spot-forming units (SFU) per 10^6 PBMC. The threshold for CFSE-based CD4^+ (CD4^+ T) and CD8^+ (CD8^+ T) T-cell proliferation is ≥2% CD4^+ T-cell CFSE^low or CD8^+ T-cell CFSE^low. The threshold of intracellular cytokine staining (ICS) of FACS-based cytolysin (perforin) and cytotoxins (granzymes A and B) in CD4^+ T cells (CyCD4) and CD8^+ T cells (CyCD8) is ≥0.2%. […] The nine HIV-1 peptides in black are the counterpart FIV peptides used in the current MAP vaccine trial, whereas the 13 peptides in blue were not.

[2] = tested on: PBMC from FIV-vaccinated cats; assay: Feline IFNγ ELISpot of PBMC from vaccinated cats; type: cell-based, cat
Method: (§1) IFNγ and IL2 ELISpot analyses were performed using feline IFNγ ELISpot and feline IL2 ELISpot kits (R&D Systems, Cat# SEL764 and SEL1890) as described. The threshold is defined as ≥50 spot forming units (SFU) per 1×10^6 PBMC when counted with MVS ELISpot Reader (MVS Pacific, LLC). Each result is an average of the duplicate samples after subtraction of the average value of the media controls.
(§2) Concurrently, the overlapping peptide pools of FIV structural/enzyme proteins were used to stimulate PBMC and T cells from FIV-vaccinated cats. These cats were vaccinated with prototype dual-subtype FIV vaccine which was the prototype to our commercial FIV vaccine (Coleman et al., 2014). The feline assays (Example 1) equivalent to those of human assays (Sanou et al., 2013; Roff et al., 2015) were used except for ICS analysis. In place of ICS for cytolysin/cytotoxins, IL2 ELISpot analysis was performed. […] The results for FIV-vaccinated cats included IFNγ and IL2 productions and CD3^+CD4+ and CD3^+CD8^+ T-cell proliferation (Table 9, the second set of results).
(§3) The feline IFNγ and L2 ELISpot analyses of PBMC to FIV MAPs and peptides were performed as previously described (Abbott et al. (2012)) using feline IFNγ modular kit (R&D Systems, Minneapolis, Minn.) and feline IL2 modular kit (R&D Systems). All results shown in the figures (FIGS. 8A-1, 8B-1, 8A-2, 8B-2, 8A-3, 8B-3) are after subtracting the average value of the results from all control cats.
(§4) The second parameter evaluated was the ability of the peripheral blood mononuclear cells (PBMC) from vaccinated and control cats to produce IL2 and interferon-γ (IFNγ) proteins in responses to FIV MAPs and peptides (FIGS. 8A-1, 8A-2, 8A-3, 8B-1, 8B-2, 8B-3) using feline IL2 and IFNγ ELISpot assays (Aranyos et al. (2016); Abbott et al. (2012)). IL2 enhances the proliferation of FIV-specific CD4^+ T cells and CD8^+ T cells. IFNγ is known enhance the FIV-specific CTL activities in vaccinated cats (Abbas et al. (2015)).

[3] = tested on: PBMC from FIV-vaccinated cats; assay: Feline IL2 ELISpot of PBMC from vaccinated cats; type: cell-based, cat
Method: as §1, §2, §3, §4

[4] = tested on: feline CD3^+CD4^+ T cells; assay: CFSE-based feline CD3+CD4+ T-cell proliferation; set-up: species or system cat; details: FIV-vaccinated cats; for CDC4^+ T (T-cell proliferation), frequency of responders: FIV peptides; for CD4, frequency of responders: FIV epitope peptide
Method: (§5) Carboxyfluorescein diacetate succinimide ester (CFSE)-proliferation was performed according to the manufacturer's protocol (Invitrogen, Grand Island, N.Y.) and processed using a previously described modification. The modification consisted of 2.5×10^5 CFSE-labeled feline PBMC stimulated for 5 days (37° C., 5% CO2) with 4 μg/mL peptide in culture media (RPMI medium 25 µg/mL gentamycin, and 10% heat-inactivated fetal bovine serum (FBS)). Peptide pools consisted of 3-5 overlapping peptides of 4 μg/mL each. The antibodies used for flow cytometry based proliferation analysis consisted of murine anti-feline (Fe) CD3 monoclonal antibody (MAb clone kindly provided by Drs. Yorihiro Nishimura and Takayuki Miyazawa; described in [32]) combined with secondary goat anti-mouse IgG3-APC/CY7 MAb (SouthernBiotech, Birmingham, Ala.; Cat#1100-19); and murine anti-FeCD4-PE MAb (SouthernBiotech, Cat#8130-09); and murine anti-FeCD8 MAb (MAb clone kindly provided by Dr. Nazareth Gengozian, described in [33]) with secondary goat anti-mouse IgG2a-PE/CY7 (Southern Biotech, Cat#1080-17). The murine anti-B220-APC MAb for detecting feline B cells (SouthernBiotech, Cat#1665-11) and previously described MAbs for CFSE were used for FACS phenotyping. Both FACS phenotyping and CFSE-proliferation analyses were performed with BD LSRII and FACSDiva™ Software (BD Biosciences, San Jose, Calif.). The final value for each sample was derived after subtraction of the average value of the media controls using a positive threshold of ≥1 CFSE^low.
as §2
(§6) Carboxyfluorescein diacetate succinimide ester (CFSE)-proliferation analysis was according to the manufacturer's protocol (Invitrogen-Fisher, Carlsbad, Calif.) and processed as previously described (Roff et al. (2015)) using the following modifications: anti-feline CD3 antibody ((clone NZM1), a generous gift from T. Miyazawa (Univ. of Tokyo, Japan)) in combination with APC-conjugated anti-mouse IgG3 (Southern Biotech, Birmingham, Ala.), PE-conjugated anti-feline CD4 antibody (Southern Biotech), and anti-feline CD8 antibody (gift from N. Gengozian, University of Tennessee (Gengozian et al. (1997))) in combination with PE/Cy7-conjugated anti-mouse IgG2b (Southern Biotech) to detect the proliferation of feline CD3^+CD4+ T cells and feline […]. All results shown in the figures (FIGS. 7A-1, 7B-1, 7A-2, 7B-2, 7A-3, 7B-3) are after subtracting the average value of each results from all control cats. The threshold of CFSE proliferation is ≥0.5 CFSE^low. […]

[5] = tested on: feline CD3^+CD8^+ T cells; assay: CFSE-based feline CD3+CD8+ T-cell proliferation; set-up: species or system cat; details: for CD8^+ T (T-cell proliferation), frequency of responders: FIV peptides; for CD8^+ T (T-cell proliferation), frequency of responders / CD8, frequency of responders: FIV-vaccinated cats; for CD8, frequency of responders: FIV epitope peptide
Method: as §5, §2, §6

[6] = FIV peptides, FIV-vaccinated cats (prototype dual-subtype vaccine)
[7] = cats of Group 1, MAP Vaccine Trial 1 (FIG. 3)
[8] = FIV epitope peptide, FIV-vaccinated cats

Row | Compound | CyCD4 (cytolysin and cytotoxin production of CD4+ T cells), frequency of responders [1] | IFNγ, frequency of responders [2, 6] | IFNγ production [2, 7] | IL2, frequency of responders ([3]; FIV peptides) | CDC4^+ T (T-cell proliferation), frequency of responders [4] | CD8^+ T (T-cell proliferation), frequency of responders [5] | % CD8+ T-cell CFSE^low over % CD4+ T-cell CFSE^low ratio (CD8/CD4 response ratio) [5, 7] | IFNγ, frequency of responders [2, 8] | IL2, frequency of responders ([3]; FIV epitope peptide) | CD4, frequency of responders [4] | CD8, frequency of responders [5]
1 | CC[C@H](C)[C@H](N)C(=O)N1CCC[C@H]1C(=O)N[C@H](C(=O)NCC(=O)N[C@@H](CCC(=O)O)C(=O)N[C@H](C(=O)N[C@@H](Cc1ccc(O)cc1)C(=O)N[C@@H](CCCCN)C(=O)N[C@@H](CCCNC(=N)N)C(=O)N[C@@H](Cc1c[nH]c2ccccc12)C(=O)N[C@H](C(=O)N[C@H](C(=O)N[C@@H](CC(C)C)C(=O)NCC(=O)O)[C@@H](C)CC)[C@@H](C)CC)[C@@H](C)CC)C(C)C [Hp9-3(10-3)] | + (12.5%-25% (+)) |  |  |  |  |  |  |  |  |  | 
2 | CSCC[C@H](NC(=O)[C@H](Cc1c[nH]c2ccccc12)NC(=O)[C@H](CC(N)=O)NC(=O)[C@H](CCCCN)NC(=O)[C@@H](NC(=O)[C@H](CCC(=O)O)NC(=O)[C@H](CCC(N)=O)NC(=O)[C@H](CO)NC(=O)[C@H](C)N)C(C)C)C(=O)N[C@H](C(=O)N[C@@H](CCC(=O)O)C(=O)N[C@H](C(=O)N[C@@H](CC(C)C)C(=O)N[C@@H](CC(C)C)C(=O)N[C@H](C(=O)O)C(C)C)[C@@H](C)O)[C@@H](C)O [Hp14-2(15-2)] (H-ASQEVKNWMTETLLV-OH; N-terminus and C-terminus assumed) | ++++ (>54% (++++)) |  |  |  |  |  |  |  |  |  | 
3 | CSCC[C@H](NC(=O)[C@H](Cc1c[nH]c2ccccc12)NC(=O)[C@H](CC(N)=O)NC(=O)[C@H](CCCCN)NC(=O)[C@@H](N)C(C)C)C(=O)N[C@H](C(=O)N[C@@H](CCC(=O)O)C(=O)N[C@H](C(=O)N[C@@H](CC(C)C)C(=O)N[C@@H](CC(C)C)C(=O)N[C@H](C(=O)N[C@@H](CCC(N)=O)C(=O)N[C@@H](CC(N)=O)C(=O)N[C@@H](C)C(=O)N[C@@H](CC(N)=O)C(=O)O)C(C)C)[C@@H](C)O)[C@@H](C)O [Hp14-3(15-3)] (H-VKNWMTETLLVQNAN-OH; N-terminus and C-terminus assumed) | ++++ (>54% (++++)) |  |  |  |  |  |  |  |  |  | 
4 | GRRYVWCSLPQGWVLSPLIY [FRT7-1/2, overlapping peptide of MAP5] |  | +++ (40.1%-54% (+++)) | no IFNγ response | +++ (40.1%-54% (+++)) | +++ (40.1%-54% (+++)) | +++ (40.1%-54% (+++)) | 11 |  |  |  | 
5 | GSSKEIDMAIVTLKV [FMA2] |  | ++ (25.1%-40% (++)) |  | ++ (25.1%-40% (++)) | ++++ (>54% (++++)) | ++++ (>54% (++++)) |  | ++ (26%-40% (++)) | ++ (26%-40% (++)) | ++++ (>54% (++++)) | ++++ (>54% (++++))
6 | KFLLDTGADITILN [FPR2] |  | ++++ (>54% (++++)) |  | ++++ (>54% (++++)) | ++++ (>54% (++++)) | ++++ (>54% (++++)) |  | ++++ (>54% (++++)) | ++++ (>54% (++++)) | ++++ (>54% (++++)) | ++++ (>54% (++++))
7 | NVAVGVGGKSKKF [FMA1] |  | ++++ (>54% (++++)) |  | — (0%-1.4%(—)) | +++ (40.1%-54% (+++)) | ++++ (>54% (++++)) |  | ++++ (>54% (++++)) |  | +++ (41%-54% (+++)) | ++++ (>54% (++++))
8 | TLEKRPEILIFVNG [FPR1] |  | — (0%-1.4%(—)) |  | — (0%-1.4%(—)) | ++++ (>54% (++++)) | ++++ (>54% (++++)) |  | — (0%-1.4% (—)) | — (0%-1.4% (—)) | ++++ (>54% (++++)) | ++++ (>54% (++++))
9 | WRMLIDFRVLNKLTDKGA [FRT3-4/5] |  | — (0%-1.4%(—)) |  | +++ (40.1%-54% (+++)) | — (0%-1.4%(—)) | — (0%-1.4%(—)) |  |  |  |  | 
